From patent US7749955B2, “Separation of polypeptides comprising a racemized amino acid” (Novo Nordisk A/S, priority 2003, dated 2010)

Test: isoelectric pH of the peptide (isoelectric precipitation)
Assay type: physicochemical
Conditions: pH at which the peptide was precipitated after chromatography
Text: Arg^34GLP-1(7-37) was expressed in yeast (S. cerevisiae) by conventional recombinant technology as described elsewhere (WO 98/08871). Arg^34GLP-1(7-37) in the fermentation broth was then purified by conventional reversed phase chromatography and subsequently precipitated at the isoelectric pH of the peptide, i.e. at pH 5.4. The precipitate was isolated by centrifugation. Following another RP-LC purification step and isoelectric precipitation, the Arg^34GLP-1(7-37) peptide was acylated as decribed in WO 00/55119 to give the GLP-1 derivative Arg^34Lys^26N^ε(γ-Glu(N^α-hexadecanoyl))GLP-1(7-37).
L17K, K30R-GLP2(1-33) was expressed in yeast (S. cerevisiae) by conventional recombinant technology in a similar manner as described in WO 98/08871 for GLP-1 peptides. L17K, K30R-GLP2(1-33) in the fermentation broth was then purified by conventional aniaon exchange and reversed phase chromatography and subsequently precipitated at the isoelectric pH of the peptide, i.e. at pH 4. The precipitate was isolated by centrifugation. D-His-L17K, K30R-GLP2(1-33) was prepared by solid phase synthesis.

Substance	isoelectric pH of the peptide [pH]
Arg^34GLP-1(7-37)	5.4
L17K, K30R-GLP2(1-33) (HADGSFSDEMNTILDNKAARDFINWLIQTRITD; Glucagon-like peptide 2; UniProt P01275 146-178, looked up, variant L17K K30R) [GLP-2 analogue expressed in yeast]	4
